The target in assay [1] is mTORC1 (Homo sapiens, UniProt P42345+P62942). Nature of the assay: LINE1 expression in memory CD4+ T-cells from blood of patients treated with mTORC1 inhibitors. The settings on record: memory CD4+ T-cells from blood of kidney transplanted patients treated with Everolimus, versus healthy individuals.
Assay [2] deals with LINE1 RNAs. Nature of the assay: Actinomycin D treatment of quiescent naïve CD4+ T-cells, LINE1 expression by qRT-PCR. The settings on record: Actinomycin D 5 μg/mL, 16 h. In kind it is cell-based, human. How it is done: Quiescent naïve CD4^+ T-cells were treated for 16 h with Actinomycin D 5 μg/mL (Merck; cat. num. A9415) as reported in^68. TCR signaling pathway inhibition was performed using the following immunosuppressive drugs: Rapamycin (100 nM; Merck; cat. num. R8781) for mTORC1, Ciclosporin A (0,5 μg/mL; Merck; cat. num. C3662) for Calcineurin pathway, Dexamethasone (1 μM; Merck; cat. num. D4902) for NF-κB pathway. Quiescent naïve CD4^+ T-cells were pretreated for 2 hours with the overmentioned drugs, then stimulated with Dynabeads Human T-activator anti-CD3/anti-CD28 beads in Th1 medium, in the presence of the different inhibitors; T-cells were collected 2, 4, 8 h post activation. Otherwise, naïve CD4^+ T-cells activated and cultured in Th1 medium for 72 h were treated for 48 h with the drugs. Treated cells were controlled for their vitality and treatment efficacy was assessed.

The subject of assay [3] is LINE1 RNAs. Nature of the assay: LINE1 RNA FISH in naïve CD4+ T-cells treated with 3TC retrotranscriptase inhibitor. It is filed as cell-based, human. The settings on record: versus vehicle (DMSO). How it is done:
Briefly, antisense biotinylated riboprobes for LINE1, AluY and HERVK were in vitro transcribed using MAXIscript T7 transcription kit (Invitrogen) and Biotin RNA labeling mix (Roche). 50-100 ng of antisense biotinylated riboprobes per experiment were used. 3% paraformaldehyde (PFA) fixed T-cells were washed with 0.05% Triton-X-100 in PBS, permeabilized with 0.5% Triton-X-100 in PBS and maintained in 20% glycerol/PBS.
To quantify mean fluorescence intensity of RNA signal in 3D reconstructed nuclei, images were analyzed with NIS-Elements Software (by Nikon). In the “General Analysis” a mask on DAPI signals was generated to identify single nuclei, and then a “3D measurement” of RNA signals in every nucleus was performed. To measure the colocalization of RNA and histone mark signals was used ImageJ Software to control the Pearson Correlation through the command “Colocalization Threshold” for every nucleus.

*1 amine or outer side, *2 acyl side, *3 side chain or, on linkers, in order; H or OH if unused. Where a SMILES comes first, the peptide text is derived from it. Bridges are numbered along the chain shown (N, C = ends). Roman numbers before positions name the chains, in order. [ ]: non-standard residue; d: D form. Actinocin(9to1) = Cc1c2oc3c(C)ccc(C(=O)[*:1])c3nc-2c(C(=O)[*:2])c(N)c1=O; NMeV = CN[C@H](C(=O)O)C(C)C; Sar = CNCC(=O)O

As to `CO[C@H]1C[C@@H]2CC[C@@H](C)[C@@](O)(O2)C(=O)C(=O)N2CCCC[C@H]2C(=O)O[C@H]([C@H](C)C[C@@H]2CC[C@@H](OCCO)[C@H](OC)C2)CC(=O)[C@H](C)/C=C(\C)[C@@H](O)[C@@H](OC)C(=O)[C@H](C)C[C@H](C)/C=C/C=C/C=C/1C` [Everolimus], the “LINE1 RNAs expression” value in assay [1] was “re-express LINE1 RNAs”.

On to `Cc1c2oc3c(C)ccc(C(=O)N[C@@H]4C(=O)N[C@H](C(C)C)C(=O)N5CCC[C@H]5C(=O)N(C)CC(=O)N(C)[C@@H](C(C)C)C(=O)O[C@@H]4C)c3nc-2c(C(=O)N[C@@H]2C(=O)N[C@H](C(C)C)C(=O)N3CCC[C@H]3C(=O)N(C)CC(=O)N(C)[C@@H](C(C)C)C(=O)O[C@@H]2C)c(N)c1=O` [actinomycin D, Actinomycin D] (I: T[dV]P[Sar][NMeV] / II: T[dV]P[Sar][NMeV]; ester I:1-I:C, II:1-II:C; linker I:N-II:N via Actinocin(9to1)), for which, in assay [2], the “LINE1 RNAs levels” value was “moderately affect”. `Nc1ccn([C@@H]2CS[C@H](CO)O2)c(=O)n1` [3TC]: in assay [3], the “staining of LINE1 RNAs (RNA-FISH)” value is given as “completely unchanged”.

Source of the values: patent US20230272399A1, “INHIBITORS OF LINE1 AND USES THEREOF” (T-ONE THERAPEUTICS S.R.L., priority 2020, published 2023).
